Tested on: thrips
Experiment: Thrips control in cotton, seed treatment field trials (1) and (2)
Format: in vivo, thrips on cotton
Conditions: for Adult Thrips 14 DAP / Immature Thrips 14 DAP / Immature Thrips 21 DAP: cotton DP 555 BR, seed treatment; for Adult Thrips 14 DAP / Immature Thrips 14 DAP: 14 days after planting; for Adult Thrips 14 DAP: number of adult thrips; for Immature Thrips 14 DAP / Immature Thrips 21 DAP: number of immature thrips; for Immature Thrips 21 DAP / Damage 21 DAP: 21 days after planting; for Damage 21 DAP: visual plant damage rating, scale 1 to 5 (1=no damage, 3=moderate damage, 5=severe damage)
Method: (a) A base fungicide seed treatment formulation is prepared by diluting a concentrate containing 3.32% mefenoxam (CAS# 70630-17-0), 1.11% fludioxonil (CAS# 131341-86-1) and 6.64% azoxystrobin (CAS# 131860-33-8), into water as a carrier. […] Seed treated are allowed to air dry and shipped and stored at ambient temperature prior to planting (approximately two weeks). (b) A seed treatment formulation is prepared by diluting Cruiser® […] seed treatment insecticide (Syngenta Crop Protection, Inc), which contains 49% thiamethoxam and the base fungicide concentrate described in (a), into water as a carrier. […] Seed treated are allowed to air dry and shipped and stored at ambient temperature prior to planting (approximately two weeks). (c) An abamectin seed treatment formulation is prepared by diluting an abamectin […] seed treatment nematicide formulation containing 46.3% abamectin and the base fungicide concentrate (a), into water as a carrier. […] Seed treated were allowed to air dry and were shipped and stored at ambient temperature prior to planting (approximately two weeks). The above formulations of thiamethoxam and abamectin were combined together into water as a carrier and with the base fungicide (a). […] This formulation dilution was applied for one to two minutes at ambient temperature to approximately one kilogram of Delta and Pine Land cottonseed (DP 555 BR) in a Hege seed treater. Seed treated were allowed to air dry and were shipped and stored at ambient temperature prior to planting (approximately two weeks). Control (a) and treated cottonseed (b) (c) and (d) were planted in field plots in two separate trials (1) and (2) as follows: Cottonseed is sown (4 seeds per foot) in plots with dimensions of 2 rows (36 inch row spacing) by 30-feet in a randomized complete block layout consisting of an control check (a), abamectin plus a base fungicide (c), thiamethoxam plus a base fungicide (b) and the combination of thiamethoxam and abamectin plus a base fungicide (d). […] Thrips were collected from five random plants within each replication of each treatment by collecting thrips in alcohol and counting the numbers of thrips using a dissecting scope in the laboratory.

CN1COCN(Cc2cnc(Cl)s2)/C1=N\[N+](=O)[O-] [Thiamethoxam (b), thiamethoxam]
thrips control (14 and 21 days after planting, cotton seed treatment): approximately 85% | Adult Thrips 14 DAP (Trial (1)): 5 per five plants | Immature Thrips 14 DAP (Trial (1)): 13 per five plants | Immature Thrips 21 DAP (Trial (1)): 20.25 per five plants | Damage 21 DAP (Trial (1)): 3.3 | Immature Thrips 14 DAP (Trial (2)): 15 per five plants

abamectin [Abamectin (c)]
Adult Thrips 14 DAP (Trial (1)): 13 per five plants | Immature Thrips 14 DAP (Trial (1)): 39.25 per five plants | Immature Thrips 21 DAP (Trial (1)): 50.5 per five plants | Damage 21 DAP (Trial (1)): 4 | Immature Thrips 14 DAP (Trial (2)): 71.5 per five plants | thrips control compared to the untreated check (trials 1 and 2, cotton seed treatment): ~50%
